Common to all, as to format: in vivo, C57BL6 male mice
In assay [1] the test system is trabecular bones of the femurs. Briefly: micro-CT of femur of opposite limb (trabecular bone formation). Particulars: 100 μg/kg subcutaneously daily Day 1 to Day 13, Day 14, compared with control, PTH(1-34) and monomeric [Cys25]PTH(1-34) groups. The procedure: (§1) Five 10-week-old C57BL6 male mice were prepared for each group, and fracture model surgery was performed in the following manner (see FIG. 3). In particular, 9 days before (-D9) and 6 days before (-D6) prior to fracture model surgery (DO) in mice of each group, infrared fluorescent dyes (IR Dyes, Infra-Red dyes) were administered through a tail vein of the mice. Then, the mice were general anesthetized using isoflurane containing oxygen (O2) for fracture model surgery, and a left hind limb was shaved and sterilized for surgery. An incision of about 15 mm was made in the left hind limb in the longitudinal direction, and the tibia was exposed by obtuse-angled resection of the muscle. Then, transverse osteotomy was performed using disc-shaped dental steel bars at the midpoint of the tibia. After repositioning the fracture site, the entire length of a bone marrow lumen was made internally stabilized. After washing it with saline, the skin was sutured with nylon sutures. In particular, the fracture animal models prepared in Example 2 was divided into a control group, PTH(1-34), monomeric [[…]]PTH(1-34), and dimeric [[…]]PTH(1-34) administration groups (n=5 animals per group). […] In addition, the femurs of an opposite limb of the animal models were collected and analyzed by micro-CT equipment to evaluate the degree of bone formation in the trabecular bones of the femurs.

Assay [2] concerns fracture animal model. Briefly: 3D-micro CT of tibia including fracture site (callus formation). Particulars: 100 μg/kg subcutaneously daily Day 1 to Day 13; tibia collected Day 14. The procedure: as §1, with “The collected shin bones” for “In addition, the femurs of an opposite limb of the animal models”, “imaged” for “collected”, “using 3D-micro CT (Microfocus X-ray CT system SMX-90CT, Shimadzu, Japan) equipment.” for “by micro-CT equipment to evaluate the degree of bone formation in the trabecular bones of the femurs.”

Assay [3] has as its system fracture animal model. Briefly: IVIS imaging of fracture site in fracture animal model. Particulars: 100 μg/kg subcutaneously daily Day 1 to Day 13 after fracture surgery; imaged Day 4, 7, 11, 14. The procedure: Five 10-week-old C57BL6 male mice were prepared for each group, and fracture model surgery was performed in the following manner (see FIG. 3). In particular, 9 days before (-D9) and 6 days before (-D6) prior to fracture model surgery (DO) in mice of each group, infrared fluorescent dyes (IR Dyes, Infra-Red dyes) were administered through a tail vein of the mice. Then, the mice were general anesthetized using isoflurane containing oxygen (O2) for fracture model surgery, and a left hind limb was shaved and sterilized for surgery. An incision of about 15 mm was made in the left hind limb in the longitudinal direction, and the tibia was exposed by obtuse-angled resection of the muscle. Then, transverse osteotomy was performed using disc-shaped dental steel bars at the midpoint of the tibia. After repositioning the fracture site, the entire length of a bone marrow lumen was made internally stabilized. […] On Day 4, Day 7, Day 11, and Day 14 after the surgery, fracture sites of mice per each group were photographed and analyzed using IVIS Lumina XR (Caliper Life Sciences, USA) equipment and Living Image software. The results as shown in FIG. 4 confirmed that when the dimeric [[…]]PTH(1-34) was administered, an intensity of fluorescence was increased at the site where the fracture was healing. […] Therefore, intensifying of the fluorescence means that bone formation increased.

Here are results for 1 substance from patent US20220193202A1, “PARATHYROID HORMONE DERIVATIVE IN DIMERIC FORM OF PARATHYROID HORMONE FRAGMENT AND PHARMACEUTICAL COMPOSITION FOR PREVENTION OR TREATMENT OF BONE DISEASES COMPRISING SAME” (GACHON UNIVERSITY OF INDUSTRY-ACADEMIC COOPERATION …, priority 2019, published 2022).

With “dimeric [Cys25]PTH(1-34): Dimeric form of parathyroid hormone fragment PTH(1-34) with Arg25 substituted by Cys (SEQ ID NO: 1), disulfide bond between cysteines”, the “bone formation in the trabecular bones of the femurs (micro-CT, FIG. 8)” value in assay [1] is listed as “greatest increase”. Also, in the assay on fracture animal model [2], the “callus formation (3D-micro CT, FIG. 6)” value is listed as “promoted” and the “callus volume (FIG. 7)” value is listed as “notably increased”. Moreover, in the assay on fracture animal model [3], the “bone formation, average of photon flux (FIG. 5)” value was “significantly increased” and the “intensity of fluorescence at the site where the fracture was healing (IVIS imaging, FIG. 4)” value was “increased”.
